Key:
[1] = tested on: D-3-Hydroxybutyrate dehydrogenase (HBDH); assay: Assessment of mediator inhibition of D-3-hydroxybutyrate dehydrogenase (assay rate before and after filtration); assay type: biochemical, Pseudomonas sp.; design: Residual enzyme activity after filtration (percentage of the original activity): concentration or dose not given beside the values; conditions: for Assay Rate before filtration: 50 U/ml HBDH with mediator in Tris buffer pH 8.2, incubated 0.5 hours at 37.5 C, NADH at 340 nm, measure of efficiency as oxidant of NADH; for Assay Rate after filtration: enzyme reisolated from the mediator solution by filtration (30,000 cut-off), redissolved in Tris buffer; for Residual enzyme activity after filtration (percentage of the original activity): compared with control (no mediator)
Experimental: D-3-Hydroxybutyrate dehydrogenase (HBDH; EC 1.1.1.30) from Pseudomonas sp. was purchased from Toyobo Co., Ltd. p-Nicotinamide adenine dinucleotide (NAD^+) and D,L-3-hydroxybutyric acid were supplied by Boehringer Mannheim.
A series of 18 solutions (2.5 ml each) were prepared, each containing 50 U/ml HBDH and 1.29 or 2.58 mg of the following NAD(P)H mediators: MB(3), 4-Me-BQ(4), 1-Me0-PMS (5), DCIP(6), 1,10-PQ(7), 1,7-PQ(8), 2,9-Me2-1,10-PQ(10), 1-Me-1,10-PQ^+ (11), and [Ru(bpy)2(1,10-PQ)](PF6)2 (12) in Tris buffer (50 mM, pH 8.2). A control solution was also prepared, containing enzyme but no mediator. The solutions were incubated for 0.5 hours at 37.5 C, then assayed (in triplicate) for NADH at 340 nm, using a Sigma Diagnostics D-3-hydroxybutyrate kit. The extent of the interference of the added mediator with the assay rate compared to the control afforded a quantitative measure of the mediator's efficiency as an oxidant of NADH.
The enzyme was then reisolated from the mediator solutions by filtration through a polysulfone membrane (nominal molecular weight cut-off: 30,000) in a microcentrifuge filter (Millipore). The enzyme remaining on the filter was dissolved in Tris buffer (0.2 ml), and the resulting solution was assayed (in triplicate) with the Sigma kit. By comparing the results of the assays before and after filtration, the effect of any covalently and/or irreversibly bound mediator on the enzyme activity could be determined.

[2] = Evaluation of mediators as NADH mediators in dry strips (screen-printed electrodes, NADH dose response)
Experimental: Screen-printed electrodes incorporating 1,10-PQ and MB were produced from an organic carbon ink containing these NAD(P)H mediators at a level of 3.5 mg/g ink. The solid mediators were mixed into a commercial conducting carbon ink (Gwent Electronic Materials).
The dose response curve for the electrodes containing 1,10-PQ tested with aqueous NADH solutions (0-16.7 mM) in PBS at a poise potential of +400 mV versus a printed Ag/AgCl reference electrode is shown in FIG. 3. A slope of 0.58 nA mM^−1 NADH was recorded. The dose response curve for the electrodes containing MB tested with aqueous NADH solutions (0-12.4 mM) at a poise potential of +100 mV versus a printed Ag/AgCl reference electrode is shown in FIG. 4. An increased slope of 8.48 μA mM^−1 NADH was observed.

[3] = Dry strips containing HBDH and NAD+: response to D-3-hydroxybutyrate after storage
Experimental: Screen-printed electrodes were produced from an aqueous carbon ink incorporating 1,10-PQ or MB at a level of 2.4 or 4.3 mg/g ink, respectively, together with the enzyme HBDH (120 units/g ink) and NAD^+ (110 mg/g ink). The ink also contained a polysaccharide binder.
The electrodes were tested after 4, 14, and 26 weeks of storage (30° C., desiccated) with aqueous D-3-hydroxybutyrate solutions (0-25 mM) in PBS at a poise potential of +400 mV versus a printed Ag/AgCl reference electrode. All three dose responses were non-linear and levelled out with a current of 8.5 μA being recorded at 24 mM D-3-hydroxybutyrate.
The electrodes were tested after 2 and 14 weeks storage (30° C., desiccated) with aqueous D-3-hydroxybutyrate solutions (0-28 mM) in PBS at a poise potential of +100 mV versus a printed Ag/AgCl reference electrode. The dose response curves were similar to those in FIG. 4. A current of 8.6 μA was recorded at 24 mM D-3-hydroxybutyrate for these electrodes after 2 weeks storage. This is almost identical to responses obtained from dry strips containing 1,10-PQ.

Compound | Assay Rate before filtration [1] [absorbance units/min] | Assay Rate after filtration [1] [absorbance units/min] | Slope of dose response curve to NADH ([2]; electrodes containing 1,10-PQ, NADH 0-16.7 mM in PBS, +400 mV versus Ag/AgCl) [nA mM^−1 NADH] | Current at 24 mM D-3-hydroxybutyrate ([3]; after 4, 14 and 26 weeks of storage (30° C., desiccated), +400 mV versus Ag/AgCl) [μA] | Residual enzyme activity after filtration (percentage of the original activity) [1] [%] | Slope of dose response curve to NADH ([2]; electrodes containing MB, NADH 0-12.4 mM, +100 mV versus Ag/AgCl) [μA mM^−1 NADH] | Current at 24 mM D-3-hydroxybutyrate ([3]; after 2 weeks storage (30° C., desiccated), +100 mV versus Ag/AgCl) [μA]
O=C1C(=O)c2ncccc2-c2ncccc21 [1,7-PQ, 1,7-Phenanthroline quinone] | 0.115 | 0.150 | – | – | – | – | –
O=C1C(=O)c2cccnc2-c2ncccc21 [1,10-PQ, 1,10-Phenanthroline quinone] | 0.149 | 0.160 | 0.58 | 8.5 | – | – | –
C[n+]1cccc2c1-c1ncccc1C(=O)C2=O.O=S(=O)([O-])C(F)(F)F [1-Me-1,10-PQ^+, 1-Me-1,10-phenanthrolinium quinone trifluoromethane sulphonate] | 0.150 | 0.185 | – | – | 94 | – | –
Cc1ccc2c(n1)-c1nc(C)ccc1C(=O)C2=O [2,9-Me2-1,10-PQ, 2,9-Dimethyl-1,10-phenanthroline quinone] | 0.189 | – | – | – | – | – | –
COS(=O)(=O)[O-].COc1cccc2c1nc1ccccc1[n+]2C [Compound 1-MeO-PMS, 1-Methoxy phenazine methosulphate] | 0.009 | 0.071 | – | – | 47 | – | –
CC1=CC(=O)C(=O)C=C1 [Compound 4-Me-BQ, 4-Methyl-1,2-benzoquinone] | 0.005 | 0.007 | – | – | 4 | – | –
O=C1C(Cl)=CC(=Nc2ccc(O)cc2)C=C1Cl [DCIP, 2,6-Dichloroindophenol] | 0.104 | 0.085 | – | – | 57 | – | –
C[N+](C)=c1ccc2nc3c(ccc4ccccc43)oc-2c1.[Cl-] [MB, Meldola's Blue] | 0.008 | 0.026 | – | – | 16 | 8.48 | 8.6
[Ru(bpy)2(1,10-PQ)] (PF6)2 [[Ru(bpy)2(1,10-PQ)](PF6)2] | 0.114 | 0.193 | – | – | 98 | – | –
